Assay results from patent publication US20210228531A1, “TARGETED TREATMENT OF AUTISM SPECTRUM DISORDER AND OTHER NEUROLOGICAL OR PSYCHIATRIC DISORDERS” (Tufts Medical Center, Inc., priority 2018, published 2021).

Experiments:
[1] = after IP or oral administration; cited from earlier work
[2] = tested on: vascular endothelial growth factor (VEGF); conditions: Jeong et al. 2011; cited from earlier work
[3] = tested on: glucose transporter 1 (GLUT-1); conditions: Jeong et al. 2011; cited from earlier work
[4] = clinical trials (U.S. Pat. No. 3,995,061); cited from earlier work
hnRNP L [5] = assay: Western Blot analysis of hnRNP L in cultured rat primary cortical neurons; format: cell-based
Source text: Compounds that modify hnRNP L levels are useful for the development of ASD/mental retardation/neurological disorders.

hnRNP L [6] = conditions: cited from earlier work
BIN1 = conditions: human osteosarcoma cells (U2OS), proteome analysis; cited from earlier work
[7] = human osteosarcoma cells (U2OS), proteome analysis

| SMILES | toxicity as assessed by LD50 [1] | expression of VEGF [2] | expression of GLUT-1 [3] | tolerability in clinical trials [4] | levels of hnRNP L (hnRNP L [5]) | increase in hnRNP L levels (hnRNP L [6]; [7]) | increase in the levels of three proteins, including hnRNP L and BIN1 (hnRNP L [6]; [7]) | hnRNP L protein levels in vitro (hnRNP L [6]; in vitro (Kang et al. 2006)) | increase in BIN1 levels (BIN1) |
| --- | --- | --- | --- | --- | --- | --- | --- | --- | --- |
| CCOc1c(Cl)c(C)c(C=O)c(O)c1C/C=C(C)/C=C/C1(C)C(C)CCC(=O)C1C (stereo not shown) [4-O-ethyl-ascochlorin, 4-O-ethylascochlorin] | low toxicity |  |  |  |  |  |  |  |  |
| COc1c(Cl)c(C)c(C=O)c(O)c1C/C=C(C)/C=C/[C@@]1(C)[C@H](C)CCC(=O)[C@@H]1C [MAC, 4-O-methylascochlorin] | low toxicity | increases the expression | increases the expression | well tolerated |  |  |  |  |  |
| CC(/C=C/[C@@]1(C)[C@H](C)CCC(=O)[C@@H]1C)=C\Cc1c(O)c(Cl)c(C)c(C=O)c1O [ascochlorin] |  |  |  |  | increased levels of hnRNP L | 12 x | ≥ 10 fold | increase hnRNP L protein levels | 10 x |
